The test system of this assay is GluR2-lacking AMPA receptors. Conditions: injection into accumbens 15 min before extinction test.

The values below come from patent publication US20100048722A1, “FORMATION OF ACCUMBENS GluR2-LACKING AMPA RECEPTORS MEDIATES […] COCAINE CRAVING” (ROSALIND FRANKLIN UNIVERSITY OF MEDICINE AND SCIENCE, priority 2008, published 2010).

Like-named read-outs stand apart in the source and are kept apart here.

Experimental: Male rats were trained to nose-poke (biochemical and electrophysiology experiments) or lever-press (Naspm accumbens injections experiment) for 6-h/day for 10-12 days; each cocaine infusion was paired with a tone-light or light cue. After self-administration training, the rats were tested for cue-induced cocaine-seeking after 1 or 45 withdrawal days. During testing, lever or nose-poke responding led to contingent presentations of the cue previously paired with cocaine infusions, but not cocaine. Responding on the previously active lever or hole was the operational measure of cocaine-seeking.
The rats were anesthetized using isoflurane gas (Henry Schein, Melville, N.Y.) and flunixin meglumine was administered before surgery (2 mg/kg, i.p.) as an analgesic. A silastic catheter was inserted into the right auricle through the external jugular vein, passed under the skin and fixed in the mid-scapular region. The rats recovered from surgery for at least seven days prior to beginning self-administration training sessions. During this time, catheters were flushed every 24-48 h with sterile 0.9% saline. […]

For `Cl.Cl.Cl.NCCCNCCCCNCCCNC(=O)Cc1cccc2ccccc12` [Naspm, 1-Naphthylacetyl spermine trihydrochloride], the “cue-induced cocaine-seeking (responses on previously active lever)” value is recorded as “did not alter” (withdrawal day 1) and “significantly reduced” (withdrawal day 45).
